Measured values: PubChem BioAssay AID504526 (Southern Research Specialized Biocontainment Screening …, 2011)
Values joined by “and” are separate entries in the source; they are usually repeats but may differ in a detail not shown here. Identical values can stand only once. Active and inactive are the calls of the source. How the calls were made is not given here.

Test system: RSV-infected cells, CPE inhibition (cell viability)
Assay: RSV cytopathic effect inhibitors, dose response, cell-based, synthesized compounds, set 6 (AID 504526)

Molecule `O=C(NCc1ccccc1Cl)C1CCN(S(=O)(=O)c2cccc3nonc23)CC1` has an IC50 of 6.9 µM.

Molecule `COc1ccc(C)c(NC(=O)[C@@H]2CCCN2S(=O)(=O)c2cccc3cccnc23)c1` has an IC50 of 3.51 µM.

Work on `Cc1ccc(Cl)cc1NC(=O)[C@@H]1CCCN1S(=O)(=O)c1cccc2cccnc12` yielded an IC50 of 0.22 µM.

`Cc1ccc(C(C)(C)C)cc1NC(=O)[C@@H]1CCCN1S(=O)(=O)c1cccc2cccnc12` was tested, and the IC50 was > 50 µM (inactive).

With `COCCCNC(=O)c1ccc(Cn2c(=O)c3ccc(Cl)cc3n(Cc3ccc(C)cc3)c2=O)cc1` the IC50 was > 50 µM (inactive).

For `COc1ccccc1CNC(=O)C1CCN(S(=O)(=O)c2cccc3cccnc23)CC1`, the IC50 was > 50 µM (inactive).

With `Cc1ccc(C)c(NC(=O)[C@@H]2CCCN2S(=O)(=O)c2cccc3cccnc23)c1` the IC50 was 5.1 µM.

In the case of `Cc1ccc(C(F)(F)F)cc1NC(=O)[C@@H]1CCCN1S(=O)(=O)c1cccc2cccnc12`, the IC50 is reported as > 50 µM (inactive).

With `COc1ccccc1CNC(=O)C1CCN(S(=O)(=O)c2cccc3scnc23)CC1` the IC50 was > 50 µM (inactive).

In the case of `Cc1cccc(C)c1NC(=O)[C@@H]1CCCN1S(=O)(=O)c1cccc2cccnc12`, the IC50 is reported as 34.6 µM.

With `COc1ccccc1CNC(=O)C1CCN(S(=O)(=O)c2cccc3nonc23)CC1` the IC50 was 3.6 µM and 4.7 µM.

`COCCNC(=O)c1ccc(Cn2c(=O)c3ccccc3n(Cc3ccc(C)cc3)c2=O)cc1` was tested, and the IC50 was 2.32 µM.

In the case of `COc1cccc(CNC(=O)C2CCN(S(=O)(=O)c3cccc4nonc34)CC2)c1`, the IC50 is reported as > 50 µM (inactive).

`Cc1ccc(Cl)c(NC(=O)[C@@H]2CCCN2S(=O)(=O)c2cccc3cccnc23)c1` was tested, and the IC50 was > 50 µM (inactive).

For `COc1ccc(CNC(=O)C2CCN(S(=O)(=O)c3cccc4nonc34)CC2)cc1`, the IC50 was > 50 µM (inactive).

In the case of `COc1ccc(C)cc1NC(=O)[C@@H]1CCCN1S(=O)(=O)c1cccc2cccnc12`, the IC50 is reported as > 50 µM (inactive).

`COc1ccccc1CNC(=O)C1CCN(Cc2cccc3nonc23)CC1` was tested, and the IC50 was > 50 µM (inactive).

For `COc1ccccc1CNC(=O)C1CCN(S(=O)(=O)c2ccccc2)CC1`, the IC50 was > 50 µM (inactive).

For `COc1ccccc1NCC(=O)Nc1cc(S(=O)(=O)N2CCOCC2)ccc1N1CCOCC1`, the IC50 was > 50 µM (inactive).

With `Cc1ccccc1CNC(=O)C1CCN(S(=O)(=O)c2cccc3nonc23)CC1` the IC50 was > 50 µM (inactive).

In the case of `Cc1ccc(C(C)C)cc1NC(=O)[C@@H]1CCCN1S(=O)(=O)c1cccc2cccnc12`, the IC50 is reported as > 50 µM (inactive).

`COc1ccccc1CNC(=O)[C@@H]1CCCN1S(=O)(=O)c1cccc2cccnc12` showed an IC50 of 18.8 µM.

`O=C(O)C1CC=CCC1C(=O)Nc1ccc(S(=O)(=O)N2CCCc3ccccc32)cc1` (centres undefined) showed an IC50 of 31.4 µM.

For `COCCCNC(=O)c1ccc(Cn2c(=O)c3ccccc3n(Cc3ccccc3)c2=O)cc1`, the IC50 was > 50 µM (inactive).
